Values of other authors in patent US9493497B2, “Carbamate glycolipid and use thereof” (RIKEN, priority 2012, dated 2016).

Legend:
[1] = not given; remark: listed apart in the source

CCCCCCCCCCCCCCCCCCCCCCCCCC(=O)N[C@@H](CO[C@H]1CC(CO)[C@H](O)[C@H](O)C1O)[C@H](O)[C@H](O)CCCCCCCCCCCCCC (stereo partly shown) [RCAI-56]
NKT cell activation / IFN-γ production induction (NKT cells): strongly activates NKT cells and induces production of a large amount of IFN-γ

CCCCCCCCCCCCCCCCCCCCCCCCCC(=O)N[C@@H](CC[C@H]1OC(CO)[C@H](O)C(O)C1O)[C@H](O)[C@H](O)CCCCCCCCCCCCCC (stereo partly drawn) [α-C-GalCer]
activation of NKT cells of mouse (NKT cells of mouse): strongly activates NKT cells of mouse and preferentially produces IFN-γ
cytokine production in human NKT cells (human NKT cells): scarcely induces cytokine production

CCCCCCCCCCCCCCCCCCCCCCCCCC(=O)N[C@@H](CO[C@H]1OC(CO)[C@H](O)C(O)C1O)[C@H](O)[C@H](O)CCCCCCCCCCCCCC (stereo partly shown) [KRN7000]
anti-tumor activity (tumor): extremely strong anti-tumor activity

CCCCCCCC/C=C\CCCCCCCCCCCCCC(=O)N[C@@H](CO[C@H]1OC(CNC(C)=O)[C@H](O)[C@H](O)C1O)[C@H](O)[C@H](O)CCCCCCCCCCCCCC (stereo partly shown) [PBS-57]
solubility in DMSO: improved solubility in DMSO

CCCCCCCCCCCCCCCCCCCCCCCCCC(=O)N[C@@H](CO[C@H]1O[C@H](COC)[C@H](O)[C@H](O)[C@H]1O)[C@H](O)[C@H](O)CCCCCCCCCCCCCC [RCAI-61]
solubility in water [1]: low solubility in water
NKT cell activation / IFN-γ production induction (NKT cells): induces production of IFN-γ in large amounts
